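Five concentrations, 48 hours, 96-well plates. The concentration for 50% growth inhibition is given as GI50. TGI: concentration producing complete growth inhibition.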
Assays:
Assay in all cases: NCI anticancer screen, dose series, 48 h
CCRF-CEM leukemia = tested on: CCRF-CEM leukemia
HOP-92 NSCLC = tested on: HOP-92 NSCLC
A498 renal = tested on: A498 renal
ACHN renal = tested on: ACHN renal
MALME-3M melanoma = tested on: MALME-3M melanoma
HCT-116 colon = tested on: HCT-116 colon
NCI-H226 lung = tested on: NCI-H226 lung
UO-31 renal = tested on: UO-31 renal
KM12 colon = tested on: KM12 colon
HCT-15 colon = tested on: HCT-15 colon

Structure (SMILES)	GI50 (CCRF-CEM leukemia)	TGI (CCRF-CEM leukemia)	GI50 (HOP-92 NSCLC)	TGI (HOP-92 NSCLC)	GI50 (A498 renal)	TGI (A498 renal)	GI50 (ACHN renal)	TGI (ACHN renal)	GI50 (MALME-3M melanoma)	TGI (MALME-3M melanoma)	GI50 (HCT-116 colon)	TGI (HCT-116 colon)	GI50 (NCI-H226 lung)	TGI (NCI-H226 lung)	GI50 (UO-31 renal)	TGI (UO-31 renal)	GI50 (KM12 colon)	TGI (KM12 colon)	GI50 (HCT-15 colon)	TGI (HCT-15 colon)
CC(C)(C)OC(=O)CN1CCc2c(sc3ncnc(N/N=C/c4cccc5ccccc45)c23)C1	1.56 µM	> 33.3 µM	1.74 µM	16.7 µM	3.78 µM	11.9 µM	1.59 µM	7.5 µM	3.51 µM	8.69 µM	1.65 µM	6.73 µM	4.28 µM	12.8 µM	1.19 µM	5.87 µM	3.53 µM	9.8 µM	2.2 µM	9.57 µM
Cc1cccc2c1O/C(=C\c1ccc([N+](=O)[O-])o1)C2=O	0.285 µM	1.05 µM	1.16 µM	2.95 µM	1.76 µM	4.63 µM	0.367 µM	1.44 µM	0.971 µM	2.66 µM	0.251 µM	0.777 µM	1.42 µM	3.14 µM	1.09 µM	2.49 µM	1.38 µM	2.99 µM	0.274 µM	0.998 µM
COc1ccc(/C=C(/C)[N+](=O)[O-])cc1	–	4.48 µM	–	5.66 µM	–	8.28 µM	–	3.97 µM	–	4.59 µM	–	3.14 µM	–	39.7 µM	–	3.15 µM	–	3.32 µM	–	7.36 µM
Cc1cc(C)c2c(SCc3ccc(Cl)cc3Cl)nc(N)nc2n1	–	> 100 µM	–	58.1 µM	–	> 100 µM	–	> 100 µM	–	> 100 µM	–	> 100 µM	–	> 100 µM	–	70.7 µM	–	> 100 µM	–	> 100 µM
C/C1=C/C(=O)O[C@@H]2C[C@@H](CC[C@H](C)/C=C\C=C\CC1)O[C@@](OCCc1ccccc1)([C@@H]1CSC(=O)N1)C2	0.282 µM	> 17.5 µM	0.0119 µM	0.0661 µM	0.0313 µM	0.133 µM	0.0501 µM	> 17.5 µM	0.0694 µM	0.943 µM	0.225 µM	> 17.5 µM	0.0985 µM	> 17.5 µM	0.0386 µM	0.173 µM	6.19 µM	> 17.5 µM	0.09 µM	> 17.5 µM
COc1ccc(/C=C/C(=O)c2cc3c(N)c(C(=O)Nc4ccccc4C)sc3nc2C)cc1	0.475 µM	> 50 µM	0.6 µM	32.3 µM	0.197 µM	2.64 µM	0.36 µM	> 50 µM	0.248 µM	> 50 µM	0.53 µM	> 50 µM	0.619 µM	12.2 µM	0.861 µM	> 50 µM	1.07 µM	4.8 µM	0.52 µM	> 50 µM
CCCCCC(O)(CCCCC)CCCCCCCCC1=C(O)c2[nH]c(=O)ccc2C(=O)C1=O	–	48.1 µM	–	28.1 µM	–	24.6 µM	–	19.2 µM	–	13.9 µM	–	16.4 µM	–	28.8 µM	–	26.1 µM	–	23.6 µM	–	16.3 µM
O=c1c2ccccc2nc(-c2ccccc2)n1O	–	> 100 µM	–	> 100 µM	–	> 100 µM	–	> 100 µM	–	> 100 µM	–	> 100 µM	–	> 100 µM	–	> 100 µM	–	> 100 µM	–	> 100 µM
BrC1=CC=C2NCCCCCCN=C3C=CC(Br)=CC=C3NCCCCCCN=C2C=C1	–	> 25.5 µM	–	> 25.5 µM	–	> 25.5 µM	–	> 25.5 µM	–	> 25.5 µM	–	> 25.5 µM	–	> 25.5 µM	–	> 25.5 µM	–	> 25.5 µM	–	> 25.5 µM
Oc1c(I)cc(-c2nc3ccccc3s2)cc1CN(Cc1ccccn1)Cc1ccccn1	0.35 µM	> 100 µM	0.273 µM	5.45 µM	0.484 µM	4.81 µM	0.286 µM	3.37 µM	0.288 µM	4.79 µM	0.494 µM	12.4 µM	0.269 µM	3.16 µM	0.272 µM	2.35 µM	0.4 µM	17.4 µM	0.379 µM	> 100 µM
COc1ccc(CC(NC(=O)[C@H](C)NC(=O)CN2CCOCC2)C(=O)N[C@@H](Cc2ccccc2)C(=O)[C@@]2(C)CO2)cc1 (stereo not given in full)	0.0859 µM	> 100 µM	0.227 µM	0.758 µM	0.224 µM	0.893 µM	0.801 µM	> 33.5 µM	0.281 µM	1.41 µM	0.181 µM	0.49 µM	0.246 µM	0.725 µM	3.2 µM	15.2 µM	0.162 µM	0.338 µM	5.64 µM	76.3 µM
